Measurements as given in patent US9763905B2, “Therapeutic target for the treatment of cancers and related therapies and methods” (CHILDREN'S MEDICAL CENTER CORPORATION, priority 2013, dated 2017).
Entries after “also recorded” stand apart in the source; their conditions may differ. Where two headings read alike, the source gives them in different places.

Key:
[1] = system: control human foreskin fibroblast (Hs27) cell line; assay: Cell viability assay (Cell Counting Kit-8), Example 5; assay type: cell-based; conditions: DHA 0-250 μM, TAK-875 0-0.4 μM, 3 and 6 days
Protocol: (§1) Neuroblastoma cell lines used to perform the present studies include: ShSY5Y, IMR-32, SK-NSH, SK-NAS. Melanoma cell lines used include: A2058, A375, and SK-Mel3. Medullary thyroid carcinoma cell line used includes: TT. Malignant peripheral nerve sheath tumor used includes: sNF94.3. Control cell lines used included: human foreskin fibroblast line (Hs27), breast cancer cell lines (MCF-7 and […]), human umbilical vein endothelial cells (HUVEC) and human melanocytes (HMn). ShSY5Y was cultured in MEM/F12 containing 10% heat inactivated fetal bovine serum (FBS) (Invitrogen/GIBCO, Grand Island, N.Y.). IMR-32 was cultured in MEM containing 10% FBS (Invitrogen/GIBCO). SK-NSH was cultured in RPMI-1640 containing 10% FBS (Invitrogen/GIBCO). SK-Mel 3 was cultured in McCoy's 5a containing 10% FBS (Invitrogen/GIBCO). TT was cultured in F-12K containing 10% FBS (ATCC, Manassas, Va.). […] was cultured in Leibovitz's L-15 containing 10% FBS (ATCC). HUVEC was cultured with EGM-2 Bullet Kit (Lonza, Hopkinton, Mass.). HMn were cultured in MGM-4 (Lonza). All other cell lines were cultured in DMEM with 10% FBS (Invitrogen/GIBCO). Cells were incubated at 37° C. in a humidified atmosphere with 5% CO2. Cells were plated in 96-well plates to approximately 50% confluence prior to initial treatment.
(§2) Cells treated with the GPR40 agonist DHA had growth media that was replaced with each respective media containing 1% FBS and 0.1% FA-free BSA with varying concentrations of DHA (Cayman Chemical, Ann Arbor, Mich.) ranging from 0-250 μM solubilized in ethanol (Pharmco-Aaper, Brookfield, Conn.). Cells treated with the GPR40 agonist TAK-875 had growth media that was replaced with each respective media containing 10% FBS with varying concentration of TAK-875 (Selleck Chemicals, Houston, Tex.) ranging from 0-0.4 μM solubilized in dimethyl sulfoxide (Sigma-Aldrich, St. Louis, Mo.). Following 72 hours (TAK-875) or 144 hours (DHA) of treatment, viable cells were quantified using an absorbance-based cell viability assay (Cell Counting Kit-8, Dojindo, Kumamoto, Japan).

[2] = system: human foreskin fibroblast (Hs27) control cell line; assay: Cell viability assay (Cell Titer Blue), Examples 1, 3, 4; assay type: cell-based; conditions: DHA 25-250 μM 144 hours, GW9508 25-150 μM 72 hours, TAK-875 0-0.4 μM
Protocol: (§3) The human foreskin fibroblast (Hs27) and human melanoma (A2058, A375, SK-Mel 3) cell lines were purchased from ATCC (Manassas Va.). Cells were plated in 48-well plates at a concentration of 7.5×10^3cells/well in either DMEM (Hs27, A2058, A375; Invitrogen/GIBCO, Grand Island N.Y.) or McCoy's 5a medium (SK-Mel 3; Invitrogen/GIBCO) supplemented with 10% FBS (Invitrogen/GIBCO) and incubated at 37° C. in a humidified atmosphere with 5% CO2. After 24 hours the medium was replaced with either DMEM (HS27, A2058, A375) or McCoy's 5a Medium (SK-Mel 3) containing 1% heat […] (Invitrogen/GIBCO) and 0.1% FA-free BSA (Invitrogen/GIBCO) with various concentrations of DHA (Martek, Columbia Md.) prepared in 4 μL of ETOH. DHA was provided at 25-250 μM, and in the studies that follow GW9508 was provided at 25-150 μM and TAK-875 was provided at 0-0.4 μM. Controls were treated with 4 μL of ETOH. All concentrations were tested in quadruplicate.
(§4) Following 144 hours of DHA treatment cells were trypsinized (Trypsin-EDTA; Invitrogen/GIBCO) and viable cells were counted using an absorbance-based cell viability assay (Cell Titer Blue Cell Viability Assay; Promega, Madison Wis.). During the treatment, medium was changed at 72 hours for the DHA studies. Cell counts were reported as a percent of the control cell count.
(§5) Human foreskin fibroblast (Hs27) and human melanoma (A2058, A375, SK-Mel 3) cell lines (ATCC, Manassas Va.) were plated in 48-well plates at a concentration of 7.5×10^3cells/well in either DMEM (Hs27, A2058, A375; Invitrogen/GIBCC, Grand Island N.Y.) or McCoy's 5a Medium (SK-Mel 3; Invitrogen/GIBCO) supplemented with 10% FBS (Invitrogen/GIBCO) and incubated at 37° C. in a humidified atmosphere with 5% CO2. After 24 hours the medium was replaced with either DMEM (HS27, A2058, A375) or McCoy's 5a Medium (SK-Mel 3) containing 1% heat inactivated-FBS (Invitrogen/GIBCO) and 0.1% FA-free BSA (Invitrogen/GIBCO) with various concentrations of GW9508 (Cayman Chemical, Ann Arbor Mich.) prepared in 4 μL of ETOH, as described in Example 1. Controls were treated with 4 μL of ETOH. All concentrations were tested in quadruplicate.
(§6) Following 72 hours of treatment (GW9508) cells were trypsinized (Trypsin-EDTA; Invitrogen/GIBCO) and viable cells were counted using an absorbance-based cell viability assay (Cell Titer Blue Cell Viability Assay; Promega, Madison Wis.). Cell counts are reported as a percent of the control cell count.
(§7) Given the high expression of GPR40 and the negligible expression of GPR120 by the human melanoma cells evaluated, further studies were performed using the selective, potent and orally bioavailable GPR40 agonist, TAK-875 (Selleck Chemicals) consistent with the methods disclosed in Examples 1 and 3. In particular, such studies were performed to evaluate the ability of TAK-875 to exert an inhibitory effect on human melanoma cell lines in vitro relative to a control fibroblast cell line (Hs27) and the human breast cancer cell line MCF-7, as well as to further evaluate the mechanisms via which compounds such as omega-3 fatty acids exert their cellular effects on human melanoma.

[3] = system: A2058 human melanoma cell line; assay: as above; assay type: cell-based; conditions: DHA 25-250 μM 144 hours, GW9508 25-150 μM 72 hours, TAK-875 0-0.4 μM
Protocol: as §3, §4, §5, §6, §7

[4] = system: A375 human melanoma cell line; assay: as above; assay type: cell-based; conditions: DHA 25-250 μM 144 hours, GW9508 25-150 μM 72 hours, TAK-875 0-0.4 μM
Protocol: as §3, §4, §5, §6, §7

[5] = system: SK-Mel3 human melanoma cell line; assay: as above; assay type: cell-based; conditions: DHA 25-250 μM 144 hours, GW9508 25-150 μM 72 hours, TAK-875 0-0.4 μM
Protocol: as §3, §4, §5, §6, §7

[6] = system: human breast cancer cell line MCF-7; assay: Cell viability assay, Example 4; assay type: cell-based; conditions: TAK-875
[7] = system: breast cancer cell line MDA-MB-321; assay: Cell viability assay (Cell Counting Kit-8), Example 5; assay type: cell-based, human; conditions: TAK-875, 6 days
Protocol: as §1, with “treatment. […]” for “treatment.”

[8] = system: breast cancer cell line MCF-7; assay: as above; assay type: cell-based, human; conditions: TAK-875, 6 days
Protocol: as §1, with “treatment. […]” for “treatment.”

[9] = system: human melanoma (A2058) xenograft; assay: Murine subcutaneous xenograft model of human melanoma, established tumors, oral TAK-875; assay type: in vivo, SCID mice; conditions: 100 mg/kg/day oral, N=7/group
Protocol: The subcutaneous murine xenograft model of human melanoma was created in 6-week old severe combined immunodeficiency (SCID) mice (Jackson Laboratories, Bar Harbor, Me.) by subcutaneous injection of 1×10^6 human melanoma cells (A2058) in […] of PBS (Invitrogen/GIBCC) into the left flank of each animal. Animal weights and tumor dimensions were measured every 48 hours. Tumor volume was calculated using the following formula: volume=length×width^2×0.52. In accordance with the methods disclosed in Example 2, a murine subcutaneous xenograft model of human melanoma was prepared and used to test the effect of once daily oral TAK-875 on the growth of established melanoma tumors in vivo. Animals were treated daily for 14 days with either a control solution or an oral solution of TAK-875 (100 mg/kg/day) from the time their tumor volume reached 200 mm^3. […] Most importantly the change in tumor volume from start of drug treatment to completion of 14 days of treatment, was 77% lower in the TAK-875 group compared to placebo (P=0.04, FIG. 3G).

[10] = system: A2058 human melanoma cell line; assay: Cell viability assay (Cell Counting Kit-8), Example 5; assay type: cell-based; conditions: DHA 0-250 μM, TAK-875 0-0.4 μM, 6 days
Protocol: as §1
(§8) Cells treated with the GPR40 agonist DHA had growth media that was replaced with each respective media containing 1% FBS and 0.1% FA-free BSA with varying concentrations of DHA (Cayman Chemical, Ann Arbor, Mich.) ranging from 0-250 μM solubilized in ethanol (Pharmco-Aaper, Brookfield, Conn.). Cells treated with the GPR40 agonist TAK-875 had growth media that was replaced with each respective media containing 10% FBS with varying concentration of TAK-875 (Selleck Chemicals, Houston, Tex.) ranging from 0-0.4 μM solubilized in dimethyl sulfoxide (Sigma-Aldrich, St. Louis, Mo.). […]

[11] = system: A375 human melanoma cell line; assay: as above; assay type: cell-based; conditions: DHA 0-250 μM, TAK-875 0-0.4 μM, 6 days
Protocol: as §1, §8

[12] = system: SK-Mel 3 human melanoma cell line; assay: as above; assay type: cell-based; conditions: DHA 0-250 μM, TAK-875 0-0.4 μM, 6 days
Protocol: as §1, §8

[13] = system: malignant peripheral nerve sheath tumor (MPNST) (sNF94.3) cell line; assay: as above; assay type: cell-based; conditions: DHA 0-250 μM, TAK-875 0-0.4 μM, 3 and 6 days
Protocol: as §1, §2

[14] = system: human medullary thyroid carcinoma cell line (TT); assay: as above; assay type: cell-based; conditions: DHA 0-250 μM, TAK-875 0-0.4 μM, 3 and 6 days
Protocol: as §1, §2

[15] = system: human umbilical vein endothelial cells (HUVEC); assay: as above; assay type: cell-based; conditions: DHA 0-250 μM, TAK-875 0-0.4 μM, 3 and 6 days
Protocol: as §1, §2

[16] = system: human melanocytes (HMn); assay: as above; assay type: cell-based; conditions: HMn primary melanocytes; DHA 0-250 μM, TAK-875 0-0.4 μM; 3 and 6 days
Protocol: as §1, §2

[17] = healthy human subjects, very high doses; cited from earlier work
[18] = system: ShSY5Y neuroblastoma cell line; assay: Cell viability assay (Cell Counting Kit-8), Example 5; assay type: cell-based, human; conditions: DHA 0-250 μM, TAK-875 0-0.4 μM, 3 and 6 days
Protocol: as §1, §2

[19] = system: SK-NAS neuroblastoma cell line; assay: as above; assay type: cell-based, human; conditions: DHA 0-250 μM, TAK-875 0-0.4 μM, 3 and 6 days
Protocol: as §1, §2

[20] = system: SK-NSH neuroblastoma cell line; assay: as above; assay type: cell-based, human; conditions: DHA 0-250 μM, TAK-875 0-0.4 μM, 3 and 6 days
Protocol: as §1, §2

[21] = system: IMR-32 neuroblastoma cell line; assay: as above; assay type: cell-based, human; conditions: DHA 0-250 μM, TAK-875 0-0.4 μM, 3 and 6 days
Protocol: as §1, §2

[22] = rat, in vivo; cited from earlier work

Compound: CC/C=C\C/C=C\C/C=C\C/C=C\C/C=C\C/C=C\CCC(=O)O [DHA, docosahexaenoic acid]
- cell viability / toxicity in control cell line [1]: Little to no effect; also recorded: little effect; also recorded: Toxicity was observed in the control Hs27 cell line at high concentrations
- effect on growth / toxicity in control fibroblasts [2]: no growth inhibition

Compound: O=C(O)CCc1ccc(NCc2cccc(Oc3ccccc3)c2)cc1 [GW9508]
- effect on growth / viable cell count (percent of control) [3]: profound inhibitory effect on the growth
- effect on growth / viable cell count (percent of control) [4]: profound inhibitory effect on the growth
- effect on growth / viable cell count (percent of control) [5]: profound inhibitory effect on the growth
- effect on growth / toxicity in control fibroblasts [2]: not toxic

Compound: Cc1cc(OCCCS(C)(=O)=O)cc(C)c1-c1cccc(COc2ccc3c(c2)OC[C@H]3CC(=O)O)c1 [TAK-875]
- effect on growth [6]: did not influence the growth
- cell viability [7]: decrease in cell viability was observed at high concentrations
- cell viability [8]: decrease in cell viability was observed at high concentrations
- tumors smaller in volume versus placebo ([9]; 14 days, from tumor volume 200 mm^3, P=0.03): 62%
- tumors smaller in weight versus placebo ([9]; 14 days, from tumor volume 200 mm^3, P=0.07): 46%
- animal weights versus placebo ([9]; 14 days): not significantly different
- change in tumor volume from start of drug treatment to completion of 14 days, lower compared to placebo ([9]; P=0.04): 77%
- cell viability [10]: significant decrease in cell viability
- cell viability [11]: significant decrease in cell viability
- cell viability [12]: significant decrease in cell viability
- cell viability / toxicity in control cell line [1]: Little to no effect; also recorded: little effect; also recorded: Toxicity was observed in the control Hs27 cell line at high concentrations
- cell viability [13]: pronounced effect
- cell viability [14]: pronounced decrease
- cell viability [15]: minimal change in viability
- cell viability [16]: dramatic decrease in cell viability
- safety and tolerability [17]: safe and well tolerated
- effect on growth / viable cell count (percent of control) [3]: robust and selective cytotoxic effect
- effect on growth / viable cell count (percent of control) [4]: robust and selective cytotoxic effect
- effect on growth / viable cell count (percent of control) [5]: robust and selective cytotoxic effect
- effect on growth / toxicity in control fibroblasts [2]: did not influence the growth
- cell viability [18]: significantly attenuated viability
- cell viability [19]: significantly attenuated viability
- cell viability [20]: significantly attenuated viability
- cell viability [21]: significantly attenuated viability
- safety and tolerability [22]: safe and well tolerated
